In patent publication US8148391B2 (Cephalon, Inc., priority 2006, dated 2012):
Where two headings read alike, the source gives them in different places.

Experiments:
[1] = target: T1, baculovirus-expressed ALK (Homo sapiens, UniProt Q9UM73); experiment: ALK Kinase Assay (ELISA-type, time-resolved fluorescence); type: biochemical
T1 construct: host or cells: baculovirus expression system
In short: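 Wells were coated with phospholipase C-γ at 10 μg/mL in Tris-buffered saline. Adding 30 ng/ml enzyme started the reaction, which ran at 37° C for 15 minutes before Eu-N1 PT66 antibody detection. Percent inhibition versus log10 concentration gave IC50 by variable-slope fit.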

[2] = target: T2, c-Met (cytoplasmic domain) (Homo sapiens, UniProt P08581); experiment: c-Met Kinase Assay (same methods as for ALK, with modifications); type: biochemical
T2 construct: 10 ng/mL c-Met (cytoplasmic domain, Invitrogen Corporation #PV3143); purchased Invitrogen Corporation PV3143
In short: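 IC50 values were fitted by variable-slope sigmoidal regression of percent inhibition against log compound concentration. Phosphorylation was read with Eu-N1 PT66 antibody after a 15 min, 37 °C reaction. The reaction was initiated with 10 ng/mL c-Met cytoplasmic domain on wells coated with 10 μg/mL PLC-γ in TBS.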

[3] = ALK kinase inhibition, 1 μM ATP (Km level), read-out: ALK Activity
[4] = c-Met kinase inhibition, 1 μM ATP (Km level), read-out: cMet Activity
[5] = 1 μM ATP (Km level), 30 ng/ml ALK, 37° C., 15 minutes, read-out: ALK Activity (ALK kinase inhibition, IC50 class)
[6] = 1 μM ATP (Km level), 10 ng/mL c-Met, read-out: cMet Activity (c-Met kinase inhibition, IC50 class)
[7] = ALK kinase inhibition, 1 μM ATP, read-out: ALK Activity
[8] = c-Met kinase inhibition, 1 μM ATP, read-out: cMet Activity
[9] = 1 μM ATP (Km level), read-out: ALK Activity (ALK Kinase Inhibition, IC50)
[10] = 1 μM ATP (Km level), read-out: cMet Activity (c-Met Kinase Inhibition, IC50)

T1 sequence (Q9UM73 19-1620): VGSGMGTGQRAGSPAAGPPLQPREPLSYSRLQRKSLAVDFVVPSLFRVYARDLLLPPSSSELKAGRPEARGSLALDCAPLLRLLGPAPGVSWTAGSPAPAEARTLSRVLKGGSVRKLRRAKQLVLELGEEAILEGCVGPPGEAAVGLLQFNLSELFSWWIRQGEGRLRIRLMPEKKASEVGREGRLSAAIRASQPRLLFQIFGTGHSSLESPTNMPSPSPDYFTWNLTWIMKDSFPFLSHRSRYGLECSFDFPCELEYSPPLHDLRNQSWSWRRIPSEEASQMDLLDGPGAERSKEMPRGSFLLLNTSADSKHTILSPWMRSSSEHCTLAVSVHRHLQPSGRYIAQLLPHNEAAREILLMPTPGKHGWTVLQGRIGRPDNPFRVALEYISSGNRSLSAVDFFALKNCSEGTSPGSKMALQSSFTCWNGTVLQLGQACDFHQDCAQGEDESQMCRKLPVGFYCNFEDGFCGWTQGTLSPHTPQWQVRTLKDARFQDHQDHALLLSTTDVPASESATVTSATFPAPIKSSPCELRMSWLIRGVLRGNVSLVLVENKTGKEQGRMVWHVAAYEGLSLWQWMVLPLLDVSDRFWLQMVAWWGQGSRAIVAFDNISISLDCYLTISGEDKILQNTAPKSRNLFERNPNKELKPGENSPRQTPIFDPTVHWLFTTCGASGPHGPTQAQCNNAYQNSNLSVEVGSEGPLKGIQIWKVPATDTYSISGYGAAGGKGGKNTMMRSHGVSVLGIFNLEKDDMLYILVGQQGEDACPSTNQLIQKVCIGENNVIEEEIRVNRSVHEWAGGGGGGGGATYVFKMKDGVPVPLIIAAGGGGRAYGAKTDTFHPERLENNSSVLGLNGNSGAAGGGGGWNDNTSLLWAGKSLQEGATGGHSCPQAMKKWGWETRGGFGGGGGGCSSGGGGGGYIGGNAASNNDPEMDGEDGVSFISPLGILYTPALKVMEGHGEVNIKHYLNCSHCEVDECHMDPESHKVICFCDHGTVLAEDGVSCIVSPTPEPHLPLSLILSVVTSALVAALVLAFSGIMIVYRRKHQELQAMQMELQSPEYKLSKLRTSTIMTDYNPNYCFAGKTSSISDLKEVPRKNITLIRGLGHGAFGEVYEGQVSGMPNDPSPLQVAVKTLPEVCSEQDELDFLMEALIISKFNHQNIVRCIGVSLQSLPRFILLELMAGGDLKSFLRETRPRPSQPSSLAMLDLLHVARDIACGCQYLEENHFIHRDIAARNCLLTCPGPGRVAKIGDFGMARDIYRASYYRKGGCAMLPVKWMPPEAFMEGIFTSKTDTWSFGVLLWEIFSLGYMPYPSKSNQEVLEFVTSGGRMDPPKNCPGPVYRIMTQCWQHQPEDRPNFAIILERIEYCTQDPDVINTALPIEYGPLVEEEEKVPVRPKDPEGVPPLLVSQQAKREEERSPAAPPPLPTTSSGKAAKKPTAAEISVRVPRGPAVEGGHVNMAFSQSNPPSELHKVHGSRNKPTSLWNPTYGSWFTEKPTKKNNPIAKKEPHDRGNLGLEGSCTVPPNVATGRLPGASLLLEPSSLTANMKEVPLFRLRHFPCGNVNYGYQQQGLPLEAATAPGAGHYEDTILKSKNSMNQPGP
T2 sequence (P08581 956-1390 limits assumed): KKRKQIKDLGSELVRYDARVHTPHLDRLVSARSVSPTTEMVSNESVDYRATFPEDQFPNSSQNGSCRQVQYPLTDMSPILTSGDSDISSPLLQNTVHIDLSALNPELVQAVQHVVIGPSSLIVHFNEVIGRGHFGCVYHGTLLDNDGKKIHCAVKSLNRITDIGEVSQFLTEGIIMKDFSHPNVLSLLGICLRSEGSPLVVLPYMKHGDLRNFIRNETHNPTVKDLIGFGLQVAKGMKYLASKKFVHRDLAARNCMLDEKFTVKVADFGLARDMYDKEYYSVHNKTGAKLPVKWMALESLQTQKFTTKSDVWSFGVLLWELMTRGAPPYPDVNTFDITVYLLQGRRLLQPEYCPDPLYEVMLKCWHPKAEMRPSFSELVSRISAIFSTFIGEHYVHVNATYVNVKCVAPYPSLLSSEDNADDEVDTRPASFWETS

CNS(=O)(=O)c1ccccc1Nc1nc(Nc2ccc3c(c2)C2CC3CN(CCOC)C2)ncc1Cl (stereo not drawn) [Example 162, 2-{5-Chloro-2-[10-(2-methoxy-ethyl)-10-aza-tricyclo[6.3.1.0*2,7*]dodeca-2,4,6-trien-4-ylamino]-pyrimidin-4-ylamino}-N-methyl-benzenesulfonamide]
IC50 [1, 3]: < 0.1 µM | IC50 [2, 4]: 1 to 10 µM

COCCN1CCc2ccc(Nc3ncc(Cl)c(NC4C5CCC(C5)C4C(N)=O)n3)cc2CC1 (stereo not drawn) [Example 177, (2-exo,3-exo)-3-{5-Chloro-2-[3-(2-methoxy-ethyl)-2,3,4,5-tetrahydro-1H-benzo[d]azepin-7-ylamino]-pyrimidin-4-ylamino}-bicyclo[2.2.1]heptane-2-carboxylic acid amide]
IC50 [1, 3]: < 0.1 µM | IC50 [2, 4]: 0.1 to 1 µM

COc1cc2c(cc1Nc1ncc(Cl)c(N[C@H]3[C@@H](C(N)=O)[C@@H]4C=C[C@H]3C4)n1)CCN(CC(=O)N(C)C)CC2 [Example 1123, (1S,2S,3R,4R)-3-[5-Chloro-2-(3-dimethylcarbamoylmethyl-8-methoxy-2,3,4,5-tetrahydro-1H-benzo[d]azepin-7-ylamino)-pyrimidin-4-ylamino]-bicyclo[2.2.1]hept-5-ene-2-carboxylic acid amide]
IC50 [1, 5]: < 0.1 µM | IC50 [2, 6]: > 10 µM

CNC(=O)c1cc(C)cc(C)c1Nc1nc(Nc2ccc3c(c2)CCOC(=O)N3C)ncc1Cl [Example 1750, 2-[5-Chloro-2-(5-methyl-6-oxo-5,6,8,9-tetrahydro-7-oxa-5-aza-benzocyclohepten-2-ylamino)-pyrimidin-4-ylamino]-3,5,N-trimethyl-benzamide]
IC50 [1, 7]: 1 to 10 µM | IC50 [2, 8]: < 0.1 µM

COc1cc2c(cc1Nc1ncc(Cl)c(Nc3ccccc3S(=O)(=O)N(C)C)n1)CCN(CC(C)O)CC2 (stereo not drawn) [Example 1547, 2-{5-Chloro-2-[3-(2-hydroxy-propyl)-8-methoxy-2,3,4,5-tetrahydro-1H-3-benzazepin-7-ylamino]-pyrimidin-4-ylamino}-N,N-dimethyl-benzenesulfonamide]
IC50 [1, 7]: < 0.1 µM | IC50 [2, 8]: 1 to 10 µM

COc1cc2c(cc1Nc1ncc(Cl)c(Nc3ccc(OC)c4c3C(=O)N(C)C4)n1)CCN(CC(=O)N(C)C)CC2 [Example 937, 2-{7-[5-Chloro-4-(7-methoxy-2-methyl-3-oxo-2,3-dihydro-1H-isoindol-4-ylamino)-pyrimidin-2-ylamino]-8-methoxy-1,2,4,5-tetrahydro-3-benzazepin-3-yl}-N,N-dimethyl-acetamide]
IC50 [1, 9]: < 0.1 µM | IC50 [2, 10]: > 10 µM

COc1ccc(Nc2nc(Nc3ccc4c(c3)CCC(N3CCOCC3)CC4)ncc2Cl)c(-n2cccn2)c1 (stereo not drawn) [Example 622, 5-Chloro-N*4*-(4-methoxy-2-pyrazol-1-yl-phenyl)-N*2*-(7-morpholin-4-yl-6,7,8,9-tetrahydro-5H-benzocyclohepten-2-yl)-pyrimidine-2,4-diamine]
IC50 [1, 9]: < 0.1 µM | IC50 [2, 10]: 1 to 10 µM

COc1ccc2c(c1Nc1ncc(Cl)c(Nc3ccccc3-n3cccn3)n1)CCC(N1CCOCC1)CC2 (stereo not drawn) [Example 1071, 5-Chloro-N*2*-(2-methoxy-7-morpholin-4-yl-6,7,8,9-tetrahydro-5H-benzocyclohepten-1-yl)-N*4*-(2-pyrazol-1-yl-phenyl)-pyrimidine-2,4-diamine]
IC50 [1, 5]: 0.1 to 1 µM | IC50 [2, 6]: > 10 µM

COc1cc2c(cc1Nc1ncc(Cl)c(Nc3ccccc3OC)n1)CCN(C(=O)CN(C)C)CC2 [Example 1131, 1-{7-[5-Chloro-4-(2-methoxy-phenylamino)-pyrimidin-2-ylamino]-8-methoxy-1,2,4,5-tetrahydro-benzo[d]azepin-3-yl}-2-dimethylamino-ethanone]
IC50 [1, 5]: < 0.1 µM | IC50 [2, 6]: > 10 µM

CCN1CCc2ccc(Nc3ncc(Cl)c(N[C@@H]4CCCC[C@H]4NS(C)(=O)=O)n3)c(OC)c2CC1 [Example 232, N-{(1R,2R)-2-[5-Chloro-2-(3-ethyl-6-methoxy-2,3,4,5-tetrahydro-1H-benzo[d]azepin-7-ylamino)-pyrimidin-4-ylamino]-cyclohexyl}-methanesulfonamide]
IC50 [1, 3]: < 0.1 µM | IC50 [2, 4]: > 10 µM

CNC(=O)c1cccc(F)c1Nc1nc(Nc2ccc3c(c2)CCN(CCOC)CC3)ncc1Br [Example 1471, 2-{5-Bromo-2-[3-(2-methoxy-ethyl)-2,3,4,5-tetrahydro-1H-benzo[d]azepin-7-ylamino]-pyrimidin-4-ylamino}-3-fluoro-N-methyl-benzamide]
IC50 [1, 7]: < 0.1 µM | IC50 [2, 8]: < 0.1 µM

CC1(C)CCCNc2cc(Nc3ncc(Cl)c(N[C@H]4[C@@H](C(N)=O)[C@@H]5C=C[C@H]4C5)n3)ccc21 [Example 1613, (1S,2S,3R,4R)-3-[5-Chloro-2-(5,5-dimethyl-2,3,4,5-tetrahydro-1H-benzo[b]azepin-8-ylamino)-pyrimidin-4-ylamino]-bicyclo[2.2.1]hept-5-ene-2-carboxylic acid amide]
IC50 [1, 7]: < 0.1 µM | IC50 [2, 8]: 0.1 to 1 µM

CNC(=O)c1cccc(F)c1Nc1nc(Nc2ccc3c(c2)CCC(=O)NC3(C)C)ncc1Cl [Example 1826, 2-(5-Chloro-2-(1,1-dimethyl-3-oxo-2,3,4,5-tetrahydro-1H-benzo[c]azepin-7-ylamino)pyrimidin-4-ylamino)-3-fluoro-N-methylbenzamide]
IC50 [1, 7]: 1 to 10 µM | IC50 [2, 8]: 1 to 10 µM

CN1C(=O)OCCc2cc(Nc3ncc(Cl)c(Oc4c(F)cccc4OC4CCOC4)n3)ccc21 (stereo not drawn) [Example 1307, 2-{5-Chloro-4-[2-fluoro-6-(tetrahydro-furan-3-yloxy)-phenoxy]-pyrimidin-2-ylamino}-5-methyl-8,9-dihydro-5H-7-oxa-5-aza-benzocyclohepten-6-one]
IC50 [1, 5]: 0.1 to 1 µM | IC50 [2, 6]: 1 to 10 µM

CCN1CCN(CC)c2cc(Nc3nc(Nc4cc5c(cc4OC)CCN(CC(=O)N(C)C)CC5)ncc3Cl)ccc2C1 [Example 723]
IC50 [1, 9]: < 0.1 µM | IC50 [2, 10]: > 10 µM

CNC(=O)c1ccccc1Nc1nc(Nc2ccc3c(c2)N(C)CCNC3)ncc1Cl [Example 417, 2-[5-Chloro-2-(1-methyl-2,3,4,5-tetrahydro-1H-benzo[e][1,4]diazepin-8-ylamino)-pyrimidin-4-ylamino]-N-methylbenzamide]
IC50 [1, 3]: < 0.1 µM | IC50 [2, 4]: < 0.1 µM

CNC(=O)c1ccc2c(c1Nc1nc(Nc3ccc4c(c3)NC(=O)CCC4)ncc1Cl)OCO2 [Example 1482, 4-[5-Chloro-2-(2-oxo-2,3,4,5-tetrahydro-1H-benzo[b]azepin-8-ylamino)-pyrimidin-4-ylamino]-benzo[1,3]dioxole-5-carboxylic acid methylamide]
IC50 [1, 7]: 0.1 to 1 µM | IC50 [2, 8]: 1 to 10 µM

CNC(=O)c1ccccc1Nc1nc(Nc2ccc3c(c2)NCCNC3=O)ncc1Cl [Example 411, 2-[5-Chloro-2-(5-oxo-2,3,4,5-tetrahydro-1H-benzo[e][1,4]diazepin-8-ylamino)-pyrimidin-4-ylamino]-N-methylbenzamide]
IC50 [1, 3]: < 0.1 µM | IC50 [2, 4]: < 0.1 µM

CCN1CCc2ccc(Nc3ncc(Cl)c(NCC(C)NS(C)(=O)=O)n3)cc2CC1 (stereo not drawn) [Example 300, N-{2-[5-Chloro-2-(3-ethyl-2,3,4,5-tetrahydro-1H-benzo[d]azepin-7-ylamino)-pyrimidin-4-ylamino]-1-methyl-ethyl}-methanesulfonamide]
IC50 [1, 3]: 0.1 to 1 µM | IC50 [2, 4]: 1 to 10 µM

CCN1C(=O)[C@H](N)CCc2c1ccc(Nc1ncc(Cl)c(N[C@H]3[C@@H](C(N)=O)[C@@H]4C=C[C@H]3C4)n1)c2OC (single isomer, unassigned) [Example 1331]
IC50 [1, 5]: < 0.1 µM | IC50 [2, 6]: > 10 µM

COCCN1CCc2ccc(Nc3ncc(Cl)c(Nc4c(F)cccc4C(=O)NCC4CC4)n3)cc2CC1 [Example 1711, 2-{5-Chloro-2-[3-(2-methoxy-ethyl)-2,3,4,5-tetrahydro-1H-benzo[d]azepin-7-ylamino]-pyrimidin-4-ylamino}-N-cyclopropylmethyl-3-fluoro-benzamide]
IC50 [1, 7]: 0.1 to 1 µM | IC50 [2, 8]: 1 to 10 µM

COc1cc2c(cc1Nc1ncc(Cl)c(Nc3ccc(N4CCOCC4)cc3OC)n1)N(C)CCN(C[C@@H](O)C(F)(F)F)C2 [Example 496, (R)-3-{8-[5-Chloro-4-(2-methoxy-4-morpholin-4-yl-phenylamino)-pyrimidin-2-ylamino]-7-methoxy-1-methyl-1,2,3,5-tetrahydro-benzo[e][1,4]diazepin-4-yl}-1,1,1-trifluoro-propan-2-ol]
IC50 [1, 3]: < 0.1 µM | IC50 [2, 4]: > 10 µM

CNC(=O)c1ccsc1Nc1nc(Nc2ccc3c(c2)CCCC(=O)N3C)ncc1Cl [Example 1487, 2-[5-Chloro-2-(1-methyl-2-oxo-2,3,4,5-tetrahydro-1H-benzo[b]azepin-7-ylamino)-pyrimidin-4-ylamino]-thiophene-3-carboxylic acid methylamide]
IC50 [1, 7]: 0.1 to 1 µM | IC50 [2, 8]: 0.1 to 1 µM

COc1cc2c(cc1Nc1ncc(Cl)c(Nc3ccccc3OCC#N)n1)CCOC(=O)N2C [Example 1516, {2-[5-Chloro-2-(3-methoxy-5-methyl-6-oxo-5,6,8,9-tetrahydro-7-oxa-5-aza-benzocyclohepten-2-ylamino)-pyrimidin-4-ylamino]-phenoxy}-acetonitrile]
IC50 [1, 7]: < 0.1 µM | IC50 [2, 8]: 1 to 10 µM
